Reference: patent US6156700A, “3-(1,2-Benzisothiazol- and isoxazol-5-yl)-2,4(1H,3H)-pyrimidinedione or thione and 3-(1,2-benzisothiazol- and isoxazol-5-yl)-4(3H)-pyrimidinone or thione herbicidal agents” (American Cyanmid Company, priority 1998, dated 2000)

Legend:
[1] = test system: SAGPY Arrowhead (Pygmaea); experiment: Preemergence weed control, flooded paddy (Table III); format: in vivo, Sagittaria pygmaea; design: scale not given here
Procedure: (§1) Preemergence herbicidal activity under flooded paddy conditions is determined as follows: plant seeds or propagating organs are planted in the top 0.5 cm of silt loam soil in 32 oz. plastic containers with a diameter of 10.5 cm and no drainage holes. Water is added to these containers and maintained at 1.5 to 3 cm above the soil surface for the duration of the experiment. The test compounds are applied as aqueous/acetone mixtures 50/50 v/v pipetted directly into the flood water to give the equivalent of about 0.0313 to 0.500 kg/ha of active ingredient. The treated containers are placed on greenhouse benches and cared for in accordance with conventional greenhouse procedures. Three to four weeks after treatment, the test is terminated and each container is examined and herbicidal effect rated according to the rating system provided in Example 185. The compounds evaluated are reported by compound number given in Example 185.

Corn, Field, Zea mays [2] = experiment: Preemergence herbicidal evaluation, ZEAMX; format: in vivo, L.; conditions: 0.2500 kg/ha
Procedure, shortened: (§2)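 Seeds sown in potting soil in cups, then sprayed preemergence with compound in aqueous acetone at about 0.0156 to 0.500 kg per hectare. Greenhouse-grown; rated visually 4–5 weeks after treatment on a 0–9 scale (stand, vigor, malformation, size, chlorosis, appearance) versus untreated control.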

MOOVA Monochoria [3] = experiment: Postemergence weed control, flooded paddy (Table IV); format: in vivo, Monochoria vaginalis; design: scale not given here
Excerpt: (§3) Plastic containers containing weeds which are 3 to 5 cm tall and rice seedlings at the 1.5 to 2.5 leaf stage are flooded with water. The water is maintained at 1.5 to 3 cm above the soil surface for the duration of the experiment. Test compounds are applied as aqueous/acetone mixtures 50/50 v/v directly into the flood water to provide the equivalent of about 0.0313 to 0.500 kg/ha of active ingredient. The treated containers are placed on greenhouse benches and cared for in accordance with conventional greenhouse procedures. Three to four weeks after treatment, the test is terminated and each container is examined and herbicidal effect rated according to the rating system provided in Example 185. The compounds evaluated are reported by compound number given in Example 185.

MOOVA Monochoria [4] = experiment: Preemergence weed control, flooded paddy (Table III); format: in vivo, Monochoria vaginalis; design: scale not given here
Procedure: as §1

ORYSAT Rice, Tebonnet = experiment: Rice tolerance, flooded paddy (Table IV); format: in vivo, Oryza sativa; design: scale not given here; conditions: crop tolerance
Excerpt: as §3

[5] = test system: SAGPY Arrowhead (Pygmaea); experiment: Postemergence weed control, flooded paddy (Table IV); format: in vivo, Sagittaria pygmaea; design: scale not given here
Excerpt: as §3

[6] = test system: Velvetleaf, Abutilon theophrasti; experiment: Preemergence herbicidal evaluation, ABUTH; format: in vivo, Medic.; conditions: 0.2500 kg/ha
Procedure, shortened: as §2

Galium, Galium aparine = experiment: Postemergence herbicidal evaluation, GALAP; format: in vivo
Procedure, shortened: (§4)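 Each compound, dispersed in a 1:1 acetone–water mixture bearing 0.5% TWEEN 20, was sprayed onto roughly two-week-old seedlings at about 0.0157–0.500 kg/ha. Visual 0–9 ratings against control were made 4–5 weeks post-treatment and averaged over repeat tests.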

[7] = test system: Rice, Tebonnet, Oryza sativa; experiment: Preemergence herbicidal evaluation, ORYSAT; format: in vivo, (L.) Tebonnet; conditions: 0.2500 kg/ha
Procedure, shortened: as §2

[8] = test system: Sicklepod, Cassia obtusifolia; experiment: Preemergence herbicidal evaluation, CASOB; format: in vivo, L.; conditions: 0.2500 kg/ha
Procedure, shortened: as §2

[9] = test system: Morningglory Spp., Ipomoea Spp.; experiment: Postemergence herbicidal evaluation, IPOSS; format: in vivo; conditions: 0.2500 kg/ha
Procedure: In the tests, seedling plants are grown in jiffy flats for about two weeks. The test compounds are dispersed in 50/50 acetone/water mixtures containing 0.5% TWEEN®20, a polyoxyethylene sorbitan monolaurate surfactant of Atlas Chemical Industries, in sufficient quantities to provide the equivalent of about 0.0157 kg to 0.500 kg per hectare of active compound when applied to the plants through a spray nozzle operating at 40 psi for a predetermined time. After spraying, the plants are placed on greenhouse benches and are cared for in accordance with conventional greenhouse procedures. From four to five weeks after treatment, the seedling plants are examined and rated according to the rating system set forth below. Where more than one test is involved for a given compound, the data are averaged.
(§5) Results of herbicide evaluation are expressed on a rating scale (0-9). The scale is based upon a visual observation of plant stand, vigor, malformation, size, chlorosis and overall plant appearance as compared with a control.

[10] = test system: Barnyardgrass, Echinochloa crus-galli; experiment: Postemergence herbicidal evaluation, ECHCG; format: in vivo, (L.) Beau
Procedure, shortened: as §4

[11] = test system: Wheat, Winter, cv Riband, Triticum aestivum; experiment: Postemergence herbicidal evaluation, TRZAWR; format: in vivo
Procedure, shortened: as §4

[12] = test system: Foxtail, Green, Setaria viridis; experiment: Postemergence herbicidal evaluation, SETVI; format: in vivo, (L.) Beau
Procedure, shortened: as §4

[13] = test system: Morningglory Spp., Ipomoea Spp.; experiment: Preemergence herbicidal evaluation, IPOSS; format: in vivo; conditions: 0.2500 kg/ha
Excerpt: as §5
The preemergence herbicidal activity of the test compounds of the present invention is exemplified by the following tests in which the seeds of a variety of monocotyledonous and dicotyledonous plants are separately mixed with potting soil and planted on top of approximately one inch of soil in separate pint cups. After planting, the cups are sprayed with the selected aqueous acetone solution containing test compound in sufficient quantity to provide the equivalent of about 0.0156 to 0.500 kg per hectare of test compound per cup. The treated cups are then placed on greenhouse benches, watered and cared for in accordance with conventional greenhouse procedures. From four to five weeks after treatment, the tests are terminated and each cup is examined and rated according to the rating system provided in Example 185.
The compounds evaluated are reported by compound number given in Example 185.

CYPIR Rice Flatsedge = experiment: Preemergence weed control, flooded paddy (Table III); format: in vivo, Cyperus iria; design: scale not given here
Procedure: as §1

[14] = test system: Sicklepod, Cassia obtusifolia; experiment: Postemergence herbicidal evaluation, CASOB; format: in vivo, L.
Procedure, shortened: as §4

[15] = test system: Ragweed, Common, Ambrosia artemisifolia; experiment: Postemergence herbicidal evaluation, AMBEL; format: in vivo, L.
Procedure, shortened: as §4

[16] = test system: ECHORC Watergrass (Calif.); experiment: Preemergence weed control, flooded paddy (Table III); format: in vivo, Echinochloa oryzoides; design: scale not given here
Procedure: as §1

[17] = test system: Ragweed, Common, Ambrosia artemisifolia; experiment: Preemergence herbicidal evaluation, AMBEL; format: in vivo, L.; conditions: 0.2500 kg/ha
Procedure, shortened: as §2

Corn, Field, Zea mays [18] = experiment: Postemergence herbicidal evaluation, ZEAMX; format: in vivo, L.
Procedure, shortened: as §4

## COC(=O)COc1cc(C)c(C)cc1-c1nsc2ccc(-n3c(=O)cc(C(F)(F)F)n(C)c3=O)cc12 [Compound 12, Methyl {{6-{5-[3,6-dihydro-3-methyl-4-(trifluoromethyl)-2,6-dioxo-1(2H)-pyrimidinyl]-1,2-benzisothiazol-3-yl}-3,4-xylyl}oxy}acetate]
[1]; 0.0313 kg/ha
  herbicidal effect rating: 0.0
[1]; 0.0625 kg/ha
  herbicidal effect rating: 2.0
[1]; 0.1250 kg/ha
  herbicidal effect rating: 4.0
[1]; 0.2500 kg/ha
  herbicidal effect rating: 9.0
[1]; 0.5000 kg/ha
  herbicidal effect rating: 9.0
Corn, Field, Zea mays [2]
  herbicide rating (0-9): 7.0
MOOVA Monochoria [3]; 0.1250 kg/ha
  herbicidal effect rating: 9.0
MOOVA Monochoria [3]; 0.2500 kg/ha
  herbicidal effect rating: 9.0
MOOVA Monochoria [3]; 0.5000 kg/ha
  herbicidal effect rating: 9.0
MOOVA Monochoria [4]; 0.0313 kg/ha
  herbicidal effect rating: 9.0
MOOVA Monochoria [4]; 0.0625 kg/ha
  herbicidal effect rating: 9.0
MOOVA Monochoria [4]; 0.1250 kg/ha
  herbicidal effect rating: 9.0
MOOVA Monochoria [4]; 0.2500 kg/ha
  herbicidal effect rating: 9.0
MOOVA Monochoria [4]; 0.5000 kg/ha
  herbicidal effect rating: 9.0
ORYSAT Rice, Tebonnet; 0.1250 kg/ha
  herbicidal effect rating: 7.0
ORYSAT Rice, Tebonnet; 0.2500 kg/ha
  herbicidal effect rating: 7.0
ORYSAT Rice, Tebonnet; 0.5000 kg/ha
  herbicidal effect rating: 7.0
[5]; 0.1250 kg/ha
  herbicidal effect rating: 0.0
[5]; 0.2500 kg/ha
  herbicidal effect rating: 4.0
[5]; 0.5000 kg/ha
  herbicidal effect rating: 9.0
[6]
  herbicide rating (0-9): 9.0
Galium, Galium aparine; 0.2500 kg/ha
  herbicide rating (0-9): 9.0
[7]
  herbicide rating (0-9): 7.0
[8]
  herbicide rating (0-9): 9.0
[9]
  herbicide rating (0-9): 9.0
[10]; 0.2500 kg/ha
  herbicide rating (0-9): 9.0
[11]; 0.2500 kg/ha
  herbicide rating (0-9): 9.0
[12]; 0.2500 kg/ha
  herbicide rating (0-9): 9.0
[13]
  herbicide rating (0-9): 9.0
CYPIR Rice Flatsedge; 0.0313 kg/ha
  herbicidal effect rating: 9.0
CYPIR Rice Flatsedge; 0.0625 kg/ha
  herbicidal effect rating: 9.0
CYPIR Rice Flatsedge; 0.1250 kg/ha
  herbicidal effect rating: 9.0
CYPIR Rice Flatsedge; 0.2500 kg/ha
  herbicidal effect rating: 9.0
CYPIR Rice Flatsedge; 0.5000 kg/ha
  herbicidal effect rating: 9.0
[14]; 0.2500 kg/ha
  herbicide rating (0-9): 9.0
[15]; 0.2500 kg/ha
  herbicide rating (0-9): 9.0
[16]; 0.0313 kg/ha
  herbicidal effect rating: 9.0
[16]; 0.0625 kg/ha
  herbicidal effect rating: 9.0
[16]; 0.1250 kg/ha
  herbicidal effect rating: 9.0
[16]; 0.2500 kg/ha
  herbicidal effect rating: 9.0
[16]; 0.5000 kg/ha
  herbicidal effect rating: 9.0
[17]
  herbicide rating (0-9): 9.0
Corn, Field, Zea mays [18]; 0.2500 kg/ha
  herbicide rating (0-9): 9.0

## COC(=O)C(C)Oc1ccc(C)cc1-c1nsc2ccc(-n3c(=O)cc(C(F)(F)F)n(C)c3=O)cc12 (centres unmarked) [Compound 3]
[1]; 0.0313 kg/ha
  herbicidal effect rating: 0.0
[1]; 0.0625 kg/ha
  herbicidal effect rating: 2.0
[1]; 0.1250 kg/ha
  herbicidal effect rating: 6.0
[1]; 0.2500 kg/ha
  herbicidal effect rating: 8.0
[1]; 0.5000 kg/ha
  herbicidal effect rating: 9.0
Corn, Field, Zea mays [2]
  herbicide rating (0-9): 7.3
MOOVA Monochoria [3]; 0.1250 kg/ha
  herbicidal effect rating: 9.0
MOOVA Monochoria [3]; 0.2500 kg/ha
  herbicidal effect rating: 9.0
MOOVA Monochoria [3]; 0.5000 kg/ha
  herbicidal effect rating: 9.0
MOOVA Monochoria [4]; 0.0313 kg/ha
  herbicidal effect rating: 9.0
MOOVA Monochoria [4]; 0.0625 kg/ha
  herbicidal effect rating: 9.0
MOOVA Monochoria [4]; 0.1250 kg/ha
  herbicidal effect rating: 9.0
MOOVA Monochoria [4]; 0.2500 kg/ha
  herbicidal effect rating: 9.0
MOOVA Monochoria [4]; 0.5000 kg/ha
  herbicidal effect rating: 9.0
ORYSAT Rice, Tebonnet; 0.1250 kg/ha
  herbicidal effect rating: 3.0
ORYSAT Rice, Tebonnet; 0.2500 kg/ha
  herbicidal effect rating: 3.0
ORYSAT Rice, Tebonnet; 0.5000 kg/ha
  herbicidal effect rating: 3.0
[5]; 0.1250 kg/ha
  herbicidal effect rating: 0.0
[5]; 0.2500 kg/ha
  herbicidal effect rating: 0.0
[5]; 0.5000 kg/ha
  herbicidal effect rating: 0.0
[6]
  herbicide rating (0-9): 9.0
Galium, Galium aparine; 0.0630 kg/ha
  herbicide rating (0-9): 9.0
[7]
  herbicide rating (0-9): 6.8
[8]
  herbicide rating (0-9): 9.0
[9]
  herbicide rating (0-9): 9.0
[10]; 0.0630 kg/ha
  herbicide rating (0-9): 9.0
[10]; 0.2500 kg/ha
  herbicide rating (0-9): 9.0
[11]; 0.0630 kg/ha
  herbicide rating (0-9): 8.8
[11]; 0.2500 kg/ha
  herbicide rating (0-9): 8.0
[12]; 0.0630 kg/ha
  herbicide rating (0-9): 9.0
[12]; 0.2500 kg/ha
  herbicide rating (0-9): 9.0
[13]
  herbicide rating (0-9): 9.0
CYPIR Rice Flatsedge; 0.0313 kg/ha
  herbicidal effect rating: 9.0
CYPIR Rice Flatsedge; 0.0625 kg/ha
  herbicidal effect rating: 9.0
CYPIR Rice Flatsedge; 0.1250 kg/ha
  herbicidal effect rating: 9.0
CYPIR Rice Flatsedge; 0.2500 kg/ha
  herbicidal effect rating: 9.0
CYPIR Rice Flatsedge; 0.5000 kg/ha
  herbicidal effect rating: 9.0
[14]; 0.0630 kg/ha
  herbicide rating (0-9): 9.0
[14]; 0.2500 kg/ha
  herbicide rating (0-9): 9.0
[15]; 0.0630 kg/ha
  herbicide rating (0-9): 9.0
[15]; 0.2500 kg/ha
  herbicide rating (0-9): 9.0
[16]; 0.0313 kg/ha
  herbicidal effect rating: 9.0
[16]; 0.0625 kg/ha
  herbicidal effect rating: 9.0
[16]; 0.1250 kg/ha
  herbicidal effect rating: 9.0
[16]; 0.2500 kg/ha
  herbicidal effect rating: 9.0
[16]; 0.5000 kg/ha
  herbicidal effect rating: 9.0
[17]
  herbicide rating (0-9): 9.0
Corn, Field, Zea mays [18]; 0.0630 kg/ha
  herbicide rating (0-9): 8.3
Corn, Field, Zea mays [18]; 0.2500 kg/ha
  herbicide rating (0-9): 9.0
